Where two headings read alike, the source gives them in different places.
Legend:
[1] = test system: U937 human histiocytic leukemia cell line; test: Cellular assay: inhibition of TSQ induced necroptosis, CellTitre-Glo viability; details: U937 cells, 48 hours, TSQ cocktail, read-out: Inhibition of TSQ-induced necroptosis (IC50 cell-based assay)
Protocol: Cellular Assay: Screening Compounds for Inhibition of TSQ Induced Necroptosis, 384 Well Plate Format.
(§1) • Cell Line ID: U937 human histiocytic leukemia cell line. • Cell Concentration (cells/well): Final cell density is 20000 cells per well. • Cell growth medium: HT-RPMI medium+7.4% Fetal Bovine Serum (FBS). Cells are cultured in Corning 150 cm^2 tissue culture flasks with vented caps at 37° C./5% CO2. • Incubation: Plates were incubated at 37° C./5% CO2 in a humidified incubator for 48 hours following addition of compounds and death stimuli (TSQ cocktail). • Compound concentration: 36 μM starting concentration, 1:3 dilution, 10 point • DMSO final concentration (% v/v): 0.3%. Compounds in TSQ Cocktail (T: TNF; S: Smac Mimetic; Q: Q-VD-OPh) and their Final Concentrations: • hTNF-Fc (100 ng/ml)—produced by standard procedures as shown in Bossen et al., J. Biol. Chem., 2006, 281(20), 13964-13971. • Compound A (500 nM)—Smac mimetic, Tetralogic and SYNthesis med chem • Q-VD-OPh (10 μM)—MP Biomedicals
(§2) The cellular assay was carried out according to the following steps: • 1. Each well was prepared by sequential addition of: • a. DMSO (control; columns 1-2 and 23-24) or compound in DMSO—addition was performed using acoustic transfer of nL volumes of stock compound to give final test concentrations of 36, 12, 4, 1.3, 0.44, 0.148, 0.049, 0.016, 0.005 and 0.002 μM. All wells were backfilled with DMSO to a final total volume in the well of 100 nL. • b. Following compound/DMSO addition in step (a), 40 μL of cell suspension (5×10^5 cells/mL) was added to provide a final cell concentration of 20,000 cells per well, and • c. Following cell addition in step (b), 10 μL of 5×TSQ cocktail (except to positive controls; columns 1 and 23) was added to each well. • 2. After 48 hours, plate was removed from the 37° C. incubator and equilibrated to room temperature for 45 minutes. • 3.15 μL of room temperature CellTitre-Glo2™ (Promega™) was added to each well. • 4. Shook plates for 2 minutes (˜600 rpm) and incubated at room temperature for 15 minutes to allow signal to stabilise. • 5. Read luminescence readout on a plate reader.
Percent viability was calculated for each compound according to equation (2):
(§3) • Assay involving the TSQ cocktail (T: TNF; S: Smac mimetic; Q: Q-VD-OPh): TSQ treatment ensures that cells specifically undergo necroptotic cell death. TNF activates the TNF receptor, Smac mimetic directs the signal away from proinflammatory signaling and toward the RIPK1/RIPK3-mediated cell death pathways, and Q-VD-OPh ensures that the apoptotic response is blocked leaving only the programmed necrosis response. The compounds' activity (solution in DMSO) tested in this TSQ-induced assay was evaluated by determining the number of viable cells in culture by measuring the amount of ATP present as measured by CelltiterGlo. • Counter screen: In parallel, all compounds were tested for their ability to affect cell viability. The same U937 cells were treated with compound in DMSO without the TSQ cocktail. This counter screen enabled evaluation of off-target effects. In this case, cell viability was measured by CelltiterGlo.

[2] = test system: U937 cells; test: Counter screen: cell viability without the TSQ cocktail (off-target effect); parameters: species or system human
Protocol: as §1, §2, §3

[3] = target: human RIPK3 (Homo sapiens (Human), UniProt Q9Y572); test: KINOMEscan binding assay, human RIPK3; details: Table 21
human RIPK3, sequence (Q9Y572 whole entry): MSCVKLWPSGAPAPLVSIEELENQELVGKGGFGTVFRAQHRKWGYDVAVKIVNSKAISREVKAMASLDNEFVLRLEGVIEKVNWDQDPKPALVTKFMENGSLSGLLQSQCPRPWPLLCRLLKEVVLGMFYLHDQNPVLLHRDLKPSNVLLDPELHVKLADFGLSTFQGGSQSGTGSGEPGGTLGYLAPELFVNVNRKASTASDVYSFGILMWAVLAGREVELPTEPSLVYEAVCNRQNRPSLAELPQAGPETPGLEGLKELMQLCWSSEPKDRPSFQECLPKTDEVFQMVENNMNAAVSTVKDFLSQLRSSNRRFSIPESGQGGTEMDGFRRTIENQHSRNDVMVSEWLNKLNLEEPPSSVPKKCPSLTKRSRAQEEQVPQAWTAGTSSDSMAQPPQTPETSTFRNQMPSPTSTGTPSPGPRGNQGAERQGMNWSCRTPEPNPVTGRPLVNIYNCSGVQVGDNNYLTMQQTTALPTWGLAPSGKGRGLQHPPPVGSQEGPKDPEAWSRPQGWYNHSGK
How it was run: (§4)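 Assay principle: test compound competes with immobilized bead ligand for kinase; kinase retained, then eluted, is counted by qPCR. Conditions were 1% DMSO final with 11 compound concentrations in 3-fold steps, 30,000 nM top for most. The Hill equation with slope −1 gave Kd.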

[4] = target: human RIPK1 (Homo sapiens (Human), UniProt Q13546); test: KINOMEscan binding assay, human RIPK1; details: Table 21
human RIPK1, sequence (Q13546 whole entry): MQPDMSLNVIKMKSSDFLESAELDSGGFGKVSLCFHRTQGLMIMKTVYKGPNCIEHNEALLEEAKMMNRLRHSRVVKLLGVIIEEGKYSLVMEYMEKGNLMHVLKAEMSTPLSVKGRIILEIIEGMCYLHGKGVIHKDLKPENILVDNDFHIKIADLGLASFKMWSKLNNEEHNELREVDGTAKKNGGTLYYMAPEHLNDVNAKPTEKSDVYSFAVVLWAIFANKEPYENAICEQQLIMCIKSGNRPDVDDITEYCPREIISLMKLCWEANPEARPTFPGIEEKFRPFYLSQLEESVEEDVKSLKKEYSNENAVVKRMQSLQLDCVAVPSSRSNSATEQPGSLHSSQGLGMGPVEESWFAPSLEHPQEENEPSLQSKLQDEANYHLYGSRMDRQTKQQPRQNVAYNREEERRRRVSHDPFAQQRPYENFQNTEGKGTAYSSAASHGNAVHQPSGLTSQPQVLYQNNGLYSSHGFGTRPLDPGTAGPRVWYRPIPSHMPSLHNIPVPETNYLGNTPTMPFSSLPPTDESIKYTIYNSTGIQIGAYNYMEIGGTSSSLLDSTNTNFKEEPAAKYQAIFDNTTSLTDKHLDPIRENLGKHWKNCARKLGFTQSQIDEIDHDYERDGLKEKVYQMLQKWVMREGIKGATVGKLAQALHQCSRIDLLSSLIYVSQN
How it was run: as §4

[5] = test system: Immortalised Mouse Dermal Fibroblasts (MDFs); test: Cellular assay: inhibition of TSI induced necroptosis, CellTitre-Glo viability; details: Mus musculus, Fibroblast, MDF, 3 hours TSI cocktail, read-out: Inhibition of TSI-induced necroptosis (IC50 cell-based assay) in MDF
How it was run: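 Necroptosis induced for 3 h with TSI: rhTNF 100 ng/ml, Smac mimetic 500 nM, caspase inhibitor IDN-6556 10 μM. Mouse dermal fibroblasts had received compound (36 μM top, ten three-fold steps) 30 min beforehand. ATP-based viability scaled between untreated and TSI-only wells; IC50 taken as 4-parameter curve inflection.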

[6] = target: human MLKL (full length) (Homo sapiens (Human), UniProt Q8NB16); test: KINOMEscan binding assay, human MLKL (full length)
human MLKL (full length), sequence (Q8NB16 whole entry): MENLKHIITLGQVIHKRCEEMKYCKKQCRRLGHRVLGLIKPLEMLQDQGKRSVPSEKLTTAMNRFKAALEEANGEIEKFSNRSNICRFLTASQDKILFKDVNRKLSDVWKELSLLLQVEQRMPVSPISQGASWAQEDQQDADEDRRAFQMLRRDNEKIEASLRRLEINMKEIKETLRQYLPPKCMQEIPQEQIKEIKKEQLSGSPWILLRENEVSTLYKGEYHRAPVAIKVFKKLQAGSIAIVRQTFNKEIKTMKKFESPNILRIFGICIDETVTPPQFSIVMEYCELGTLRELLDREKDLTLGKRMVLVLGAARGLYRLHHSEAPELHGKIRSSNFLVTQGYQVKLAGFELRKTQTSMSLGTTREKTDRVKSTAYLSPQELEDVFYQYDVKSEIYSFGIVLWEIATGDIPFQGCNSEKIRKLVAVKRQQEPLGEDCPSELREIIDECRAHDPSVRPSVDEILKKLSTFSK
How it was run: as §4

[7] = target: endogenous MLKL in U937 (Homo sapiens (Human), UniProt Q8NB16); test: Degradation assay: endogenous MLKL in U937 (western blot); details: U937, 24 h incubation, read-out: Degradation of endogenous MLKL in U937 (DC50 cell-based assay)
endogenous MLKL in U937, sequence (Q8NB16 whole entry): as above
How it was run: (§5)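 Western blot band intensity of MLKL, adjusted to GAPDH loading and normalized to DMSO-only wells, gave percent degradation. Compound exposure lasted 24 h at final concentrations of 10–0.016 μM in 1:5 steps, in mouse dermal fibroblasts or human U937 cells.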

[8] = target: endogenous MLKL in MDF (Mus musculus (Mouse), UniProt Q9D2Y4); test: Degradation assay: endogenous MLKL in MDF (western blot); details: MDF cells, 24 h incubation with compound, MLKL adjusted for loading with GAPDH, normalized to DMSO only control, read-out: Degradation of endogenous MLKL in MDF (DC50 cell-based assay)
endogenous MLKL in MDF, sequence (Q9D2Y4 whole entry): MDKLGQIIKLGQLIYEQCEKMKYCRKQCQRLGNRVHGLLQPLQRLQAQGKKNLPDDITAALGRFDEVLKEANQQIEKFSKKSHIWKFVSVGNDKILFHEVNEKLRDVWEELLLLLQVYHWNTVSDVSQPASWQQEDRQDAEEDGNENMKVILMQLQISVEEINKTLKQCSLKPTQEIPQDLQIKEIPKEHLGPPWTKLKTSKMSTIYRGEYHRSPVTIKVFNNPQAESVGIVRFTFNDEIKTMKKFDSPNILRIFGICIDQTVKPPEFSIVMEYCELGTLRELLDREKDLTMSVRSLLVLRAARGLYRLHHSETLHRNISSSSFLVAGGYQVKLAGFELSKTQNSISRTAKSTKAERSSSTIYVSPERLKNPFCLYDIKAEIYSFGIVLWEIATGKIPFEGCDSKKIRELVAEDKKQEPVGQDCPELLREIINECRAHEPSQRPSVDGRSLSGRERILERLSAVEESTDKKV
How it was run: as §5

[9] = Homo sapiens, U-937, Table 23, read-out: Off-target effect (IC50 cell-based assay)
[10] = KINOMEscan, Table 21, read-out: Human MLKL (full-length) (KD)
[11] = Table 23, read-out: Off-target effect (IC50 cell-based assay)
[12] = Homo sapiens, U-937, Table 26, read-out: Off-target effect (IC50 cell-based assay)

Compound | Kd [3] [nM] | Kd [4] [nM] | Kd [6, 10] [nM] | IC50 ([1]; Homo sapiens, U-937, Table 23) [nM] | IC50 [2, 9] [nM] | IC50 ([1]; Homo sapiens, U-937, Table 26) [nM] | IC50 [2, 12] [nM] | other results
C[C@H](Oc1cc(-c2nn(C)c3c(-c4cnn(C5CCN(C)C(C)(C)C5)c4)cnc(N)c23)ccc1NS(=O)(=O)C(F)F)c1ccc(F)cc1 (single isomer, unassigned) [Compound 155, N-(4-(4-amino-1-methyl-7-(1-((S*)-1,2,2-trimethylpiperidin-4-yl)-1H-pyrazol-4-yl)-1H-pyrazolo[4,3-c]pyridin-3-yl)-2-((S)-1-(4-fluorophenyl)ethoxy)phenyl)-1,1-difluoromethanesulfonamide] |  |  |  | < 10 | > 10000 |  |  | IC50 ([5]; Table 24): < 1000 nM
Cc1ncsc1-c1ccc(CNC(=O)[C@@H]2C[C@@H](O)CN2C(=O)[C@@H](NC(=O)CN2CCC(n3cc(-c4cnc(N)c5c(-c6ccc(NS(=O)(=O)C(F)F)c(O[C@@H](C)c7ccc(F)cc7)c6)nn(C)c45)cn3)C2)C(C)(C)C)cc1 (stereo partly drawn) [Compound 1011, (2S,4R)-1-[(2S)-2-{2-[3-(4-{4-amino-3-[4-(difluoromethanesulfonamido)-3-[(1S)-1-(4-fluorophenyl)ethoxy]phenyl]-1-methyl-1H-pyrazolo[4,3-c]pyridin-7-yl}-1H-pyrazol-1-yl)pyrrolidin-1-yl]acetamido}-3,3-dimethylbutanoyl]-4-hydroxy-N-{[4-(4-methyl-1,3-thiazol-5-yl)phenyl]methyl}pyrrolidine-2-carboxamide] |  |  |  |  |  | 1000 to 10000 | > 10000 | DC50 [7]: 1000 to 10000 nM
Cc1ncsc1-c1ccc(CNC(=O)[C@@H]2C[C@@H](O)CN2C(=O)[C@@H](NC(=O)CN2CCC(n3cc(-c4cnc(N)c5c(-c6ccc(NS(=O)(=O)C(F)F)c(O[C@@H](C)c7ccc(F)cc7)c6)nn(C)c45)cn3)CC2)C(C)(C)C)cc1 [Compound 1016, (2S,4R)-1-[(2S)-2-{2-[4-(4-{4-amino-3-[4-(difluoromethanesulfonamido)-3-[(1S)-1-(4-fluorophenyl)ethoxy]phenyl]-1-methyl-1H-pyrazolo[4,3-c]pyridin-7-yl}-1H-pyrazol-1-yl)piperidin-1-yl]acetamido}-3,3-dimethylbutanoyl]-4-hydroxy-N-{[4-(4-methyl-1,3-thiazol-5-yl)phenyl]methyl}pyrrolidine-2-carboxamide] |  |  |  |  |  | < 1000 | > 10000 | IC50 ([5]; Table 27): < 1000 nM
Cc1ncsc1-c1ccc(CNC(=O)[C@@H]2C[C@@H](O)CN2C(=O)[C@@H](NC(=O)CN2CCC(C#Cc3cnc(N)c4c(-c5ccc(NS(=O)(=O)C(F)F)c(O[C@@H](C)c6ccc(F)cc6)c5)nn(C)c34)CC2)C(C)(C)C)cc1 [Compound 1023, (2S,4R)-1-[(2S)-2-{2-[4-(2-{4-amino-3-[4-(difluoromethanesulfonamido)-3-[(1S)-1-(4-fluorophenyl)ethoxy]phenyl]-1-methyl-1H-pyrazolo[4,3-c]pyridin-7-yl}ethynyl)piperidin-1-yl]acetamido}-3,3-dimethylbutanoyl]-4-hydroxy-N-{[4-(4-methyl-1,3-thiazol-5-yl)phenyl]methyl} pyrrolidine-2-carboxamide] |  |  |  |  |  | < 1000 | > 10000 | DC50 [8]: 1000 to 10000 nM
Cc1ncsc1-c1ccc(CNC(=O)[C@@H]2C[C@@H](O)CN2C(=O)[C@H](NC(=O)C2(F)CC2)C(C)(C)C)c(OCCCCCCCn2cc(-c3cnc(N)c4c(-c5ccc(NS(=O)(=O)C(F)F)c(O[C@@H](C)c6ccc(F)cc6)c5)nn(C)c34)cn2)c1 [Compound 1030, (2S,4R)—N-[(2-{[7-(4-{4-amino-3-[4-(difluoromethanesulfonamido)-3-[(1S)-1-(4-fluorophenyl)ethoxy]phenyl]-1-methyl-1H-pyrazolo[4,3-c]pyridin-7-yl}-1H-pyrazol-1-yl)heptyl]oxy}-4-(4-methyl-1,3-thiazol-5-yl)phenyl)methyl]-1-[(2R)-2-[(1-fluorocyclopropyl)formamido]-3,3-dimethylbutanoyl]-4-hydroxypyrrolidine-2-carboxamide] |  |  |  |  |  | < 1000 | > 10000 | Kd ([6]; hMLKL, Table 25, read-out: MLKL (KD)): 10 to 1000 nM

More lines, main results first:

Kd [3] [nM] | Kd [4] [nM] | Kd [6, 10] [nM] | Compound | IC50 ([1]; Homo sapiens, U-937, Table 23) [nM] | IC50 [2, 9] [nM] | IC50 ([1]; Homo sapiens, U-937, Table 26) [nM] | IC50 [2, 12] [nM] | other results
> 10000 | > 10000 |  | C[C@H](Oc1cc(-c2nn(C)c3c(-c4cnn([C@@H]5CCN(C)C(C)(C)C5)c4)cnc(N)c23)ccc1NS(=O)(=O)C(F)F)c1ccc(F)cc1 (single isomer, unassigned) [Compound 154, N-(4-(4-amino-1-methyl-7-(1-((R*)-1,2,2-trimethylpiperidin-4-yl)-1H-pyrazol-4-yl)-1H-pyrazolo[4,3-c]pyridin-3-yl)-2-((S)-1-(4-fluorophenyl)ethoxy)phenyl)-1,1-difluoromethanesulfonamide] | < 10 | > 10000 |  |  | 
> 10000 | > 10000 | 1 to 100 | CCS(=O)(=O)Nc1ccc(-c2nn(C)c3c(-c4ccncc4)cnc(N)c23)cc1OCc1ccc(F)cc1 [Compound 1, N-(4-(4-amino-1-methyl-7-(pyridin-4-yl)-1H-pyrazolo[4,3-c]pyridin-3-yl)-2-((4-fluorobenzyl)oxy)phe-nyl)ethanesulfonamide] | 1000 to 10000 | > 10000 |  |  | 
> 10000 | > 10000 | < 1 | C[C@H](Oc1cc(-c2nn(C)c3c(-c4ccc(N5CCNCC5)nc4)cnc(N)c23)ccc1NS(=O)(=O)C(F)F)c1ccc(F)cc1 [Compound 108] |  |  |  |  | IC50 ([1]; Table 23): 10 to 1000 nM; IC50 [2, 11]: > 10000 nM
> 10000 | > 10000 | 1 to 100 | CNc1ncc(-n2cc(-c3cnc(N)c4c(-c5ccc(NS(=O)(=O)C(F)F)c(O[C@@H](C)c6ccc(F)cc6)c5)nn(C)c34)cn2)cn1 [Compound 138, (S)-N-(4-(4-amino-1-methyl-7-(1-(2-(methylamino)pyrimidin-5-yl)-1H-pyrazol-4-yl)-1H-pyrazolo[4,3-c]pyridin-3-yl)-2-(1-(4-fluorophenyl)ethoxy)phenyl)-1,1-difluoromethanesulfonamide] |  |  |  |  | IC50 ([1]; Table 23): 10 to 1000 nM; IC50 [2, 11]: > 10000 nM

Source: patent publication US20250115598A1 (Anaxis Pharma Pty Ltd, priority 2021, published 2025)
